According to ChEMBL document CHEMBL6103615, “Thymidylate Kinase-Targeted Antimicrobial Peptides via Phage Display: A Novel Strategy against Gram-Negative Bacteria” (J Med Chem, 2025):
Converted amounts (≈) assume the structure as drawn. The source made the active and inactive calls. The calls are words filed in the database; no cut-off is given here.

Tests used:
[1] = Toxicity in ICR mouse assessed as change in serum ALP level at 10 to 40 mg/kg, ip treated for 3 days consecutively; type: organism-based; conditions: in vivo, 72 h, dose 10-40 mg/kg, time 3 day
[2] = test system: Escherichia coli; experiment: Induction of inner membrane permeability in Escherichia coli K88 assessed as increase in ONP level at 2 uM; type: functional, organism-based
[3] = test system: Escherichia coli; experiment: Antibacterial activity against Escherichia coli 078 incubated for 12 to 18 hrs by microbroth dilution method; type: functional; conditions: time 12-18 hrs
[4] = test system: Escherichia coli; experiment: Antibacterial activity against Escherichia coli K99 incubated for 12 to 18 hrs by microbroth dilution method; type: functional; conditions: time 12-18 hrs
[5] = Selectivity ratio of MIC for antibacterial activity against Pseudomonas aeruginosa PAO1 to MIC for antibacterial activity against Escherichia coli K97; type: functional
[6] = Selectivity ratio of MIC for antibacterial activity against Escherichia coli K99 to MIC for antibacterial activity against Escherichia coli K102; type: functional
[7] = test system: Escherichia coli; experiment: Antibacterial activity against Escherichia coli K88 infected in ICR mouse model of peritoneal sepsis assessed as reduction in blood IL-1beta level at 20 mg/kg, ip measured after 10 hrs; type: functional, organism-based
[8] = test system: Escherichia coli; experiment: Antibacterial activity against Escherichia coli K88 incubated for 12 to 18 hrs by microbroth dilution method; type: functional; conditions: time 12-18 hrs
[9] = test system: Escherichia coli; experiment: Inhibition of DNA migration in Escherichia coli K88 at 16 uM incubated for 40 mins by agarose gel electrophoresis.; type: functional, organism-based
[10] = Toxicity in ICR mouse assessed as change in serum TBIL level at 10 to 40 mg/kg, ip treated for 3 days consecutively; type: organism-based; conditions: in vivo, 72 h, dose 10-40 mg/kg, time 3 day
[11] = test system: Escherichia coli; experiment: Antibacterial activity against Escherichia coli K88 infected in ICR mouse model of peritoneal sepsis assessed as reduction in granulocyte infiltration in lungs at 20 mg/kg, ip measured after 10 hrs by H and E staining based analysis; type: functional, organism-based
[12] = test system: Pseudomonas aeruginosa; experiment: Antibacterial activity against Pseudomonas aeruginosa 27853 incubated for 12 to 18 hrs by microbroth dilution method; type: functional; conditions: time 12-18 hrs
[13] = Toxicity in ICR mouse assessed as body weight change at 10 to 40 mg/kg, ip treated for 3 days consecutively; type: organism-based; conditions: in vivo, 72 h, dose 10-40 mg/kg, time 3 day
[14] = Effect on secondary structure of compound in PBS assessed as formation of alpha-helical conformation at 100 uM by CD analysis; type: physicochemical; conditions: buffer
[15] = test system: Escherichia coli; experiment: Induction of morphological changes in Escherichia coli K88 assessed as membrane permeability at edges at 2 uM incubated for 1 hr by TEM analysis; type: functional, organism-based
[16] = test system: Escherichia coli; experiment: Induction of morphological changes in Escherichia coli K88 assessed as cytoplasmic leakage at 2 uM incubated for 1 hr by TEM analysis; type: functional, organism-based
[17] = test system: Escherichia coli; experiment: Disruption of membrane integrity in Escherichia coli K88 at 2 uM by PI staining based flow cytometry (reference value: 0.1 %); type: functional
[18] = test system: Escherichia coli; experiment: Antibacterial activity against Escherichia coli K88 infected in ICR mouse model of peritoneal sepsis assessed as bacterial load reduction in liver at 20 mg/kg, ip measured after 10 hrs; type: functional, organism-based
[19] = test system: Pseudomonas aeruginosa; experiment: Antibacterial activity against Pseudomonas aeruginosa PAO1 incubated for 12 to 18 hrs by microbroth dilution method; type: functional; conditions: time 12-18 hrs
[20] = Selectivity ratio of MIC for antibacterial activity against Escherichia coli 1515 to MIC for antibacterial activity against Escherichia coli K100; type: functional
[21] = test system: Salmonella typhimurium; experiment: Antibacterial activity against Salmonella typhimurium 7731 incubated for 12 to 18 hrs by microbroth dilution method; type: functional, Salmonella enterica subsp. enterica serovar Typhimurium; conditions: Salmonella enterica, time 12-18 hrs
[22] = Selectivity ratio of MIC for antibacterial activity against Lactococcus lactis NZ9000 to MIC for antibacterial activity against Escherichia coli K88; type: functional
[23] = test system: Bacteria; experiment: Antibacterial activity against bacterial cells at 1 to 128 uM in presence of CaCl; type: functional, organism-based; conditions: dose 1-128 µM
[24] = Toxicity in ICR mouse assessed as change in serum ALT level at 10 to 40 mg/kg, ip treated for 3 days consecutively; type: organism-based; conditions: in vivo, 72 h, dose 10-40 mg/kg, time 3 day
[25] = test system: Escherichia coli; experiment: Antibacterial activity against Escherichia coli K88 infected in ICR mouse model of peritoneal sepsis assessed as reduction in blood TNF-alpha level at 20 mg/kg, ip measured after 10 hrs; type: functional, organism-based
[26] = test system: Bacteria; experiment: Antibacterial activity against bacterial cells at 100 degreeC at 1 to 64 uM incubated for 60 mins; type: functional, organism-based; conditions: dose 1-64 µM
[27] = Selectivity ratio of MIC for antibacterial activity against Staphylococcus aureus 29213 to MIC for antibacterial activity against Escherichia coli K94; type: functional
[28] = test system: Escherichia coli; experiment: Induction of morphological changes in Escherichia coli K88 assessed as membrane contraction at 2 uM incubated for 1 hr by SEM analysis; type: functional, organism-based
[29] = test system: Escherichia coli; experiment: Antibacterial activity against Escherichia coli 1515 incubated for 12 to 18 hrs by microbroth dilution method; type: functional; conditions: time 12-18 hrs
[30] = test system: Staphylococcus aureus; experiment: Antibacterial activity against Staphylococcus aureus 29213 incubated for 12 to 18 hrs by microbroth dilution method; type: functional; conditions: time 12-18 hrs
[31] = test system: Escherichia coli; experiment: Antibacterial activity against Escherichia coli K88 infected in ICR mouse model of peritoneal sepsis assessed as reduction in blood IL-6 level at 20 mg/kg, ip measured after 10 hrs; type: functional, organism-based
[32] = test system: Staphylococcus aureus; experiment: Antibacterial activity against Staphylococcus aureus 25923 incubated for 12 to 18 hrs by microbroth dilution method; type: functional; conditions: time 12-18 hrs
[33] = test system: Lacticaseibacillus rhamnosus; experiment: Antibacterial activity against Lactobacillus rhamnosus 7469 incubated for 12 to 18 hrs by microbroth dilution method; type: functional; conditions: time 12-18 hrs
[34] = Antibacterial activity against Salmonella choleraesuis 21493 incubated for 12 to 18 hrs by microbroth dilution method; type: functional, Salmonella enterica subsp. enterica serovar Choleraesuis; conditions: Salmonella enterica, time 12-18 hrs
[35] = test system: Escherichia coli; experiment: Antibacterial activity against Escherichia coli K88 infected in ICR mouse model of peritoneal sepsis assessed as reduction in blood HMGB1 level at 20 mg/kg, ip measured after 10 hrs; type: functional, organism-based
[36] = test system: Bacteria; experiment: Antibacterial activity against bacterial cells at 1 to 64 uM incubated for 4 hrs in presence of 50 percent serum; type: functional, organism-based; conditions: dose 1-64 µM
[37] = Effect on secondary structure of compound in 50 percent TFE assessed as formation of alpha-helical conformation at 100 uM by CD analysis; type: physicochemical
[38] = Toxicity in ICR mouse assessed as change in liver index at 10 to 40 mg/kg, ip treated for 3 days consecutively; type: organism-based; conditions: in vivo, 72 h, dose 10-40 mg/kg, time 3 day
[39] = test system: Escherichia coli; experiment: Antibacterial activity against Escherichia coli K88 infected in ICR mouse model of peritoneal sepsis assessed as bacterial load reduction in kidney at 20 mg/kg, ip measured after 10 hrs; type: functional, organism-based
[40] = test system: Bacteria; experiment: Antibacterial activity against bacterial cells at 1 to 128 uM in presence of NaCl; type: functional, organism-based; conditions: dose 1-128 µM
[41] = test system: Escherichia coli; experiment: Antibacterial activity against Escherichia coli K88 infected in ICR mouse model of peritoneal sepsis assessed as reduction in vacuolar degeneration of hepatocytes at 20 mg/kg, ip measured after 10 hrs by H and E staining based analysis; type: functional, organism-based
[42] = test system: Escherichia coli; experiment: Antibacterial activity against Escherichia coli K88 infected in ICR mouse model of peritoneal sepsis assessed as reduction in granulocyte infiltration in spleen at 20 mg/kg, ip measured after 10 hrs by H and E staining based analysis; type: functional, organism-based
[43] = test system: Enterococcus faecalis; experiment: Antibacterial activity against Enterococcus faecalis 29212 incubated for 12 to 18 hrs by microbroth dilution method; type: functional; conditions: time 12-18 hrs

For `CC[C@@H](C)[C@H](NC(=O)CNC(=O)[C@@H]1CCCN1C(=O)[C@H](CCCCN)NC(=O)[C@H](Cc1c[nH]c2ccccc12)NC(=O)[C@@H](NC(=O)[C@H](CCCCN)NC(=O)[C@H](CCCCN)NC(=O)[C@H](Cc1c[nH]c2ccccc12)NC(=O)[C@H](Cc1ccc(O)cc1)NC(=O)[C@H](CCCCN)NC(=O)[C@@H](NC(=O)[C@H](CC(C)C)NC(=O)[C@H](CC(N)=O)NC(=O)CNC(=O)[C@@H](N)CO)[C@@H](C)O)[C@@H](C)CC)C(=O)N[C@@H](CCCCN)C(=O)N[C@@H](CCCCN)C(=O)N[C@@H](Cc1c[nH]c2ccccc12)C(=O)N[C@H](C(=O)N[C@@H](CCCCN)C(=O)O)[C@H](C)CC`, the Activity [1] was “Non-toxic”, the Activity [2] was “Active” and the MIC [3] was 8 µM (≈ 20.8 µg/mL). For the same compound, the MIC [4] was 4 µM (≈ 10.4 µg/mL), the Ratio [5] was over 2 and the Ratio [6] was over 2. For the same compound, the Activity [7] was “Active”, the MIC [8] was 2 µM (≈ 5.21 µg/mL) and the inhibition [9] was “Active”. The Activity [10] was “Non-toxic”, the Activity [11] was “Active” and the MIC [12] was 8 µM (≈ 20.8 µg/mL). For the same compound, the Activity [13] was “Non-toxic”, the Activity [14] was “Active” and the Activity [15] was “Active”. For the same compound, the Activity [16] was “Active”, the Activity [17] was 96.8% and the Activity [18] was “Active; Activity Comparable To Colistin Treatment”. The MIC [19] was 4 µM (≈ 10.4 µg/mL), the Ratio [20] was over 2 and the MIC [21] was 4 µM (≈ 10.4 µg/mL). For the same compound, the Ratio [22] was over 2, the Activity [23] was “inactive” and the Activity [24] was “Non-toxic”. For the same compound, the Activity [25] was “Active”, the Activity [26] was “Active” and the Ratio [27] was over 2. For the same compound, the Activity [28] was “Active”, the MIC [29] was 4 µM (≈ 10.4 µg/mL) and the MIC [30] was 128 µM (≈ 333 µg/mL). For the same compound, the Activity [31] was “Active”, the MIC [32] was 128 µM (≈ 333 µg/mL) and the MIC [33] was 128 µM (≈ 333 µg/mL). For the same compound, the MIC [34] was 8 µM (≈ 20.8 µg/mL), the Activity [35] was “Active” and the Activity [36] was “Active”. The Activity [37] was “Active”, the Activity [38] was “Non-toxic” and the Activity [39] was “Active; Activity Comparable To Colistin Treatment”. For the same compound, the Activity [40] was “inactive”, the Activity [41] was “Active” and the Activity [42] was “Active”. For the same compound, the MIC [43] was 128 µM (≈ 333 µg/mL).
